Laboratory results taken from patent US10022412B2, “Composition for preventing or alleviating periodontal diseases, containing, as active ingredient, mangosteen extract or α- or γ-mangosteen” (Medi Bio Lab. co., Ltd., priority 2014, dated 2018).
≈ marks a conversion by molar mass, not a printed value. Read-outs that look alike come from different tables or passages of the source.

Tested on: Streptococcus mutans ATCC 25175
Assay: MIC test for Streptococcus mutans (NCCLS)
Format: cell-based
Text: Generally there are minimum inhibitory concentration (hereinafter, referred to MIC) test and time-kill assay test as test methods that become the standard for judging utility of antibiotics, when a new antibiotics is developed.
MIC TEST is a test method deciding minimum inhibitory concentration where bacteria cannot grow well, namely minimal usage of antibiotics for obtaining purposed antibacterial efficacy, and Time-Kill assay test is a test method deciding usage of antibiotics that can maintain purposed efficacy for certain time range. Each test was performed, in order to test whether mangosteem extracts have proliferation inhibiting efficacy against Streptocccus Mutans (Streptocccus Mutans ATCC […]) to a certain degree.
MIC test for Streptococcus mutans (Streptococcus mutans ATCC 25175) was progressed according to the American clinical test standard method, NCCLS (National Committee for Clinical Laboratory Standards). To do comparative test of antibacterial ability of mangosteen extracts against Streptococcus mutans, after preparing each analysis sample as shown in the following table 5, that is the concentration of each analysis sample was 0, 1, 2, 3, 4, 5, 6, 7, 8, 9 and 10 ul, and the concentration of used Streptococcus mutans bacteria finally became 1×10^5 at the ratio of 50% by weight, and the concentration of DMSO (dimethyl sulfoxide) used as an analysis sample solvent finally became 1% by weight, and BHI medium (Brain heart infusion: Peptic Digest of Animal tissue, Sodium Chloride, Dextrose, Pancreatic Digest of Gelation, Disodium Phosphate, Final PH7.4+-0.2; Difco Company) was added for the remaining 40% by weight, they were used for the test. […]
After adding the samples in a microtube (duplicate) and culturing at 37° C. for 24 hrs, growth inhibit ion degree was observed by measuring absorbance at 500 nm.

Molecule `CC(C)=CCc1c(O)cc2oc3cc(O)c(O)c(CC=C(C)C)c3c(=O)c2c1O` [Gamma-mangosteen, gamma-mangosteen] has an MIC (Streptococcus mutans, ATCC25175, 24 h) of 4 µg/mL (≈ 10.1 µM).

For `COc1c(O)cc2oc3cc(O)c(CC=C(C)C)c(O)c3c(=O)c2c1CC=C(C)C` [Alpha-mangosteen, alpha-mangosteen], the MIC (S. mutans ATCC 25175, 37° C. 24 hrs, absorbance 500 nm) was 1.0(ug/ml) and the MIC (Streptococcus mutans, ATCC25175, S. mutans ATCC 25175, 37° C. 24 hrs, absorbance 500 nm, read-out: MIC) was 1 µg/mL (≈ 2.44 µM).
